Measurements reported in patent publication US12715849B2, “Herbicidal tetrazole compounds” (SYNGENTA CROP PROTECTION AG, priority 2020, dated 2026).

Legend:
Test in all cases: Glasshouse herbicidal test, pre- and post-emergence (Table B1)
Format in all cases: in vivo
[1] = system: Echinochloa crus-galli (ECHCG); conditions: 130 g/h, evaluated after 13 days; for percentage damage caused to the plant, PRE Application ECHCG: pre-emergence; for percentage damage caused to the plant, POST Application ECHCG: post-emergence
Description: (§1) Seeds of a variety of test species are sown in standard soil in pots (Lolium perenne (LOLPE), Amaranthus retoflexus (AMARE), Amaranthus palmeri (AMAPA), Ablution theophrasti (ABUTH), Setaria faberi (SETFA), Echinochloa crus-galli (ECHCG), Ipomoea hederacea (IPOHE)). After cultivation for one day (pre-emergence) or after 8 days cultivation (post-emergence) under controlled conditions in a glasshouse (at 24/16° C., day/night; 14 hours light; 65% humidity), the plants are sprayed with an aqueous spray solution derived from the formulation of the technical active ingredient in acetone/water (50:50) solution containing 0.5% Tween 20 (polyoxyethelyene sorbitan monolaurate, CAS RN 9005-64-5). Compounds are applied at 130 g/h unless otherwise indicated. The test plants are then grown in a glasshouse under controlled conditions in a glasshouse (at 24/16° C., day/night; 14 hours light; 65% humidity) and watered twice daily. After 13 days for pre and post-emergence, the test is evaluated for the percentage damage caused to the plant. The biological activities are shown in the following table on a five-point scale (5=80-100%; 4=60-79%; 3=40-59%; 2=20-39%; 1=0-19%).

[2] = system: Ipomoea hederacea (IPOHE); conditions: 130 g/h, evaluated after 13 days; for percentage damage caused to the plant, POST Application IPOHE: post-emergence; for percentage damage caused to the plant, PRE Application IPOHE: pre-emergence
Description: as §1

Setaria faberi (SETFA) = conditions: 130 g/h, evaluated after 13 days; for percentage damage caused to the plant, POST Application SETFA: post-emergence; for percentage damage caused to the plant, PRE Application SETFA: pre-emergence
Description: as §1

[3] = system: Amaranthus retoflexus (AMARE); conditions: 130 g/h, evaluated after 13 days; for percentage damage caused to the plant, POST Application AMARE: post-emergence; for percentage damage caused to the plant, PRE Application AMARE: pre-emergence
Description: as §1

[4] = system: Amaranthus palmeri (AMAPA); conditions: 130 g/h, evaluated after 13 days; for percentage damage caused to the plant, POST Application AMAPA: post-emergence; for percentage damage caused to the plant, PRE Application AMAPA: pre-emergence
Description: as §1

SMILES	percentage damage caused to the plant, PRE Application ECHCG [1]	percentage damage caused to the plant, POST Application IPOHE [2]	percentage damage caused to the plant, PRE Application IPOHE [2]	percentage damage caused to the plant, POST Application SETFA (Setaria faberi (SETFA))	percentage damage caused to the plant, PRE Application SETFA (Setaria faberi (SETFA))	percentage damage caused to the plant, POST Application AMARE [3]	percentage damage caused to the plant, PRE Application AMARE [3]	percentage damage caused to the plant, POST Application AMAPA [4]	percentage damage caused to the plant, PRE Application AMAPA [4]	percentage damage caused to the plant, POST Application ECHCG [1]
CC(C)S(=O)(=O)Nc1c(OC(F)(F)F)ccc(C(=O)Nc2nnnn2C)c1Cl [Compound 1.076]	5 (5=80-100%)	4 (4=60-79%)	3 (3=40-59%)	5 (5=80-100%)	5 (5=80-100%)	5 (5=80-100%)	5 (5=80-100%)	5 (5=80-100%)	5 (5=80-100%)	–
CN(c1c(OC(F)(F)F)ccc(C(=O)Nc2nnnn2C)c1Cl)S(C)(=O)=O [Compound 1.077]	5 (5=80-100%)	4 (4=60-79%)	4 (4=60-79%)	5 (5=80-100%)	5 (5=80-100%)	5 (5=80-100%)	5 (5=80-100%)	5 (5=80-100%)	5 (5=80-100%)	–
CC(C)CS(=O)(=O)Nc1c(OC(F)(F)F)ccc(C(=O)Nc2nnnn2C)c1Cl [Compound 1.074]	4 (4=60-79%)	5 (5=80-100%)	3 (3=40-59%)	5 (5=80-100%)	3 (3=40-59%)	5 (5=80-100%)	5 (5=80-100%)	5 (5=80-100%)	5 (5=80-100%)	5 (5=80-100%)
COCCS(=O)(=O)Nc1c(OC(F)(F)F)ccc(C(=O)Nc2nnnn2C)c1Cl [Compound 1.054]	1 (1=0-19%)	4 (4=60-79%)	3 (3=40-59%)	4 (4=60-79%)	1 (1=0-19%)	5 (5=80-100%)	5 (5=80-100%)	5 (5=80-100%)	5 (5=80-100%)	5 (5=80-100%)
CCCS(=O)(=O)Nc1c(OC(F)F)ccc(C(=O)Nc2nnnn2C)c1Cl [Compound 1.069]	5 (5=80-100%)	5 (5=80-100%)	4 (4=60-79%)	5 (5=80-100%)	4 (4=60-79%)	5 (5=80-100%)	5 (5=80-100%)	5 (5=80-100%)	5 (5=80-100%)	5 (5=80-100%)
Cn1nnnc1NC(=O)c1ccc(OC(F)(F)F)c(NS(=O)(=O)CC2CC2)c1Cl [Compound 1.056]	5 (5=80-100%)	5 (5=80-100%)	5 (5=80-100%)	5 (5=80-100%)	5 (5=80-100%)	5 (5=80-100%)	5 (5=80-100%)	5 (5=80-100%)	5 (5=80-100%)	5 (5=80-100%)
CCN(c1c(OC(F)(F)F)ccc(C(=O)Nc2nnnn2C)c1Cl)S(=O)(=O)CC [Compound 1.078]	5 (5=80-100%)	4 (4=60-79%)	4 (4=60-79%)	5 (5=80-100%)	5 (5=80-100%)	5 (5=80-100%)	5 (5=80-100%)	5 (5=80-100%)	5 (5=80-100%)	–
CC(C)CS(=O)(=O)Nc1c(OC(F)F)ccc(C(=O)Nc2nnnn2C)c1Cl [Compound 1.070]	3 (3=40-59%)	4 (4=60-79%)	2 (2=20-39%)	4 (4=60-79%)	3 (3=40-59%)	5 (5=80-100%)	4 (4=60-79%)	5 (5=80-100%)	4 (4=60-79%)	4 (4=60-79%)
CCS(=O)(=O)N(C)c1c(OC(F)(F)F)ccc(C(=O)Nc2nnnn2C)c1Cl [Compound 1.080]	5 (5=80-100%)	5 (5=80-100%)	5 (5=80-100%)	5 (5=80-100%)	5 (5=80-100%)	5 (5=80-100%)	5 (5=80-100%)	5 (5=80-100%)	5 (5=80-100%)	5 (5=80-100%)
Cn1nnnc1NC(=O)c1ccc(OC(F)(F)F)c(NS(=O)(=O)C2CC2)c1Cl [Compound 1.073]	5 (5=80-100%)	5 (5=80-100%)	5 (5=80-100%)	5 (5=80-100%)	5 (5=80-100%)	5 (5=80-100%)	5 (5=80-100%)	5 (5=80-100%)	5 (5=80-100%)	5 (5=80-100%)
COCCS(=O)(=O)Nc1c(OC(F)F)ccc(C(=O)Nc2nnnn2C)c1Cl [Compound 1.014]	1 (1=0-19%)	3 (3=40-59%)	1 (1=0-19%)	4 (4=60-79%)	1 (1=0-19%)	5 (5=80-100%)	3 (3=40-59%)	5 (5=80-100%)	5 (5=80-100%)	4 (4=60-79%)
CCS(=O)(=O)N(C)c1c(OC(F)F)ccc(C(=O)Nc2nnnn2C)c1Cl [Compound 1.087]	5 (5=80-100%)	4 (4=60-79%)	5 (5=80-100%)	5 (5=80-100%)	5 (5=80-100%)	5 (5=80-100%)	5 (5=80-100%)	5 (5=80-100%)	5 (5=80-100%)	5 (5=80-100%)
CCCS(=O)(=O)Nc1c(OC(F)(F)F)ccc(C(=O)Nc2nnnn2C)c1Cl [Compound 1.072]	5 (5=80-100%)	5 (5=80-100%)	5 (5=80-100%)	5 (5=80-100%)	5 (5=80-100%)	5 (5=80-100%)	5 (5=80-100%)	5 (5=80-100%)	5 (5=80-100%)	–
